Experimental data published in patent US20200080091A1, “Methods for Treating Obesity of a Subject Suffering from Obesity” (NAKAJIMA Toshihiro, priority 2012, published 2020).

Legend:
3T3-L1 cells = experiment: adipocyte differentiation induction of 3T3-L1 cells (Oil Red O staining); format: cell-based, mice; settings: 200 μmol siRNA introduced by Lipofectamine2000 two days before induction of differentiation; compared to a control; FIG. 4
Protocol: 3T3-L1 cells, which are preadipocytes of mice, were cultivated in Dulbecco's Modified Eagle Medium (DMEM; High Glucose) containing 10% fetal bovine serum (FBS) for 3 days after reaching confluent state. 500 μM of isobutyl-methylxanthine (IBMX), 1 μM of Dexamethasone, and 5 μg/mL of Insulin were added to induce differentiation. At the same time, 10 μM of LS-102 (ubiquitination activity inhibitor of synoviolin) or DMSO was added. After cultivation for 3 days, the medium was replaced with medium containing 4 μg/mL of Insulin and 10 μM of LS-102 or DMSO was added. After cultivation for 3 days, the medium was replaced with DMEM (High Glucose) containing 10% FBS to cultivate for 3 days. For siRNA, 200 μmol of siRNA Syno770 (sense strand consists of the following SEQ ID NO: 2) was introduced by the Lipofectamine2000 two days before induction of differentiation.
After the cultivated 3T3-L1 cells were washed with PBS(−) (Phosphate Buffered Saline solution from which magnesium and calcium had been eliminated), the cells were fixed by 10% formalin. The cells were washed with the PBS(−) to be replaced with 60% isopropanol. After staining for 20 minutes with 18 mg/ml of Oil Red 0 (solvent Isopropanol), the cells were washed with 60% isopropanol and PBS(−) and observed by a microscope.

synoviolin protein = biological target: T1, synoviolin protein (Homo sapiens, UniProt Q86TM6); settings: disclosed in Japanese Patent Application Publication No. 2008-74753; cited from earlier work
T1 construct: MBP-Syno ΔTM-His means synoviolin in which transmembrane domain has been deleted
T1 sequence (Q86TM6 246-617 limits assumed): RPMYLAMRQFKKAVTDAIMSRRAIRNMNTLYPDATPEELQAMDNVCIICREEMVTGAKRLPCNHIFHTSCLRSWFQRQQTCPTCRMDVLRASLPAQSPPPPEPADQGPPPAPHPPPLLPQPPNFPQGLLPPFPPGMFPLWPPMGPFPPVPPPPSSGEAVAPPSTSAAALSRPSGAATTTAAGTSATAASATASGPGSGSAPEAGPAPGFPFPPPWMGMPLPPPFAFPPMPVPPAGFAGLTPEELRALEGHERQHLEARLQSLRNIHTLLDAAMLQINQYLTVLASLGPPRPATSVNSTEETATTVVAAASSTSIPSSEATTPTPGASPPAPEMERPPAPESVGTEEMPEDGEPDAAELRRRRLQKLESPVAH

Compound | differentiation of adipose cells (3T3-L1 cells) | self-ubiquitination of synoviolin protein (synoviolin protein)
5′ -GCUGUGACAGAUGCCAUCA-3′ [siRNA Syno770] | differentiation has been suppressed | –
CC1=CC(=O)c2c(O)cccc2C1=O [plumbagin, 2-methyl-5-hydroxy-1,4-naphthoquinone] | – | inhibit
O=c1c(O)c(-c2ccc(O)c(O)c2)oc2cc(O)cc(O)c12 [quercetin, 2-(3,4-dihydroxyphenyl)-3,5,7-trihydroxy-4H-1-benzopyrano-4-on] | – | inhibit
